Values of other authors, collected in PMC11340619 (Redox Biology, 2024).

Test system: hepatic I/R injury
Conditions: in mice; NRF2 agonist treatment; ref [14],[15]

## C=C(CC(=O)O)C(=O)O [itaconate]
  hepatic I/R injury: alleviate hepatic I/R injury in mice

## C[S+]([O-])CCCCN=C=S (centres unmarked) [sulforaphane]
  hepatic I/R injury: alleviate hepatic I/R injury in mice
